Results taken from publication PMC9911168, “Cytotoxic and pro-apoptotic effects of botanical drugs derived from the indigenous cultivated medicinal plant Paris polyphylla var. yunnanensis” (Frontiers in Pharmacology, 2023).

Columns and labels:
Format in all cases: cell-based, human
HepG2 cells [1] = assay: Cell cycle analysis (PI staining, flow cytometry), HepG2; details: HepG2, 24 h, 1 μM
Experimental: (§1) Cell cycle distribution was determined by propidium iodide (PI, BD, Pharmingen) staining ([Kong et al., 2016]; [Wei et al., 2021]). Briefly, three cancer cell lines were cultured in six-well plates at a density of 3 × 10^5 cells per well for 24 h before treatment with each of the six isolated saponins at the indicated concentrations for 24 h. The cells were collected, centrifuged, and washed twice with ice-cold PBS. Cells were fixed in 70% (v/v) ice-cold ethanol at 4°C overnight and washed again in PBS twice. The cells were incubated with 100 μL RNase A at 37°C for 30 min in the dark, after which 400 μL PI was added to the cells with RNase A in the dark at 4°C for 15 min. The cell cycle stage was analyzed by flow cytometry (BD, FACSCelesta, United States) with FLOWJO software (FlowJo, Ashland, OR, United States).

SMMC-7721 = assay: MTS cell viability assay, SMMC-7721; details: Homo sapiens, SMMC-7721, 48 h, read-out: IC50 (±SD) SMMC-7721
Experimental: (§2) The effects of the extracts and isolated saponins on cell growth were evaluated by the MTS assay (3-(4,5-dimethylthiazol-2-yl)-5(3-carboxymethoxyphenyl)-2-(4-sulfopheny)-2H-tetrazolium; Promega, Madison, WI, United States) on human tumor cell lines ([Mosmann, 1983]; [Cory et al., 1991]; [Malich et al., 1997]). In a test experiment of cell inhibition, the cell inhibition effects of six crude extracts (100 μg/mL) and six isolated saponins (40 μM) were roughly measured to ascertain whether to measure the IC50 value by MTS assay.
(§3) Each well of a 96-well plate (Multiskan Fc, Therm) was seeded with 100 μL cells at a density of 3,000–5,000 cells per well, with the cell suspension containing 10% (v/v) fetal bovine serum (DMEM or RMPI1640, Biological Industries, Kibbutz Beit-Haemek, Israel). After 12–24 h of inoculation and culture at 37°C, the extracts or saponins were added at the indicated concentrations after being dissolved in dimethyl sulfoxide (DMSO, Biological Industries, Kibbutz Beit-Haemek, Israel) in a final volume of 200 μL per well, each in triplicate. The six crude extracts were added at concentrations of 100, 20, 4, 0.8, and 0.16 μg/mL; the six isolated saponins were added at concentrations of 10, 5, 2.5, 1.25, 0.625, and 0.3125 μM. After culture for 48 h at 37°C, 20 μL of MTS solution and 100 μL of DMEM were added to each well; three blank wells were set aside with 20 μL MTS solution and 100 μL DMEM. After an incubation for another 2–4 h, the absorbance at 492 nm was measured. Cisplatin and Paclitaxel (MeilunBio) were used as a positive control in each experiment. The cell growth curve was drawn with the concentration as the abscissa and the cell survival rate as the ordinate. The IC50 value of each saponin was calculated by the two-point method ([Reed and Muench, 1938]).

SMMC-7721 cells [2] = assay: Cell cycle analysis (PI staining, flow cytometry), SMMC-7721; details: SMMC-7721, 24 h, 1 μM
Experimental: as §1

LO2 = assay: MTS cell viability assay, normal liver cell LO2; details: Homo sapiens, L02, read-out: IC50 (±SD) LO2
Experimental: (§4) Three human liver cancer cell lines (SMMC-7721, HepG2, and SK-HEP-1) and the non-small-cell lung cancer (NSCLC) cell line A549 were obtained from ATCC (Manassas, VA, United States). Normal human cell lines (liver cell line LO2 and lung cell line BEAS-2B) were obtained from ATCC (Manassas, VA, United States). Cells were cultured in RMPI-1640 or DMEM medium (Biological Industries, Kibbutz Beit-Haemek, Israel) supplemented with 10% (v/v) fetal bovine serum (Biological Industries) at 37°C in a humidified atmosphere with 5% (v/v) CO2.
as §2, §3

A549 cells [3] = assay: Cell cycle analysis (PI staining, flow cytometry), A549; details: A549, 24 h; saponins 1 and 5 at 0.5 μM, other four at 1 μM
Experimental: as §1

A549 = assay: MTS cell viability assay, A549; details: Homo sapiens, A549, 48 h, read-out: IC50 (±SD) A549
Experimental: as §2, §3

SK-HEP-1 = assay: MTS cell viability assay, SK-HEP-1; details: Homo sapiens, SK-HEP1, 48 h, read-out: IC50 (±SD) SK-HEP-1
Experimental: as §2, §3

HepG2 = assay: MTS cell viability assay, HepG2; details: Homo sapiens, HepG2, 48 h, read-out: IC50 (±SD) HepG2
Experimental: as §2, §3

SMMC-7721 cells [4] = assay: Apoptosis by annexin V-FITC/PI staining, SMMC-7721; details: SMMC-7721, saponins 5 μM, Figure 7
Experimental: Double staining with annexin V-fluorescein isothiocyanate (FITC) and PI was used to determine the effects of the six saponins on cell apoptosis by flow cytometry ([Homburg et al., 1995]; [Vermes et al., 1995]; [Casciola-Rosen et al., 1996]). The effects of the six isolated saponins on apoptosis were determined using an annexin V-FITC apoptosis kit (BD, Pharmingen); the chemotherapy drug doxorubicin (DOX, Beyotime Institute of Biotechnology, Shanghai, China) was used as the positive control. Cells were cultured in six-well plates at a density of 3 × 10^5 cells per well for 24 h before being treated with each of the six isolated saponins at the indicated concentrations for 24 h. The cells were collected, centrifuged, and washed twice with ice-cold phosphate-buffered saline (PBS). The cells were stained with annexin V-FITC and PI for 15 min in the dark at room temperature before analysis by flow cytometry (BD, FACSCelesta, America). Annexin V-FITC^+ and PI^+ (Q2) were considered late-stage apoptotic cells, while annexin V-FITC^+ and PI^− (Q3) cells were considered early-stage apoptotic cells. Annexin V-FITC^– and PI^+ (Q1) were necrotic or mechanically damaged cells, and annexin V-FITC^– and PI^− (Q4) cells were healthy living cells.

BEAS-2B = assay: MTS cell viability assay, normal lung cell BEAS-2B; details: Homo sapiens, BEAS-2B, read-out: IC50 (±SD) BEAS-2B
Experimental: as §4, §2, §3

SMMC-7721 cells [5] = assay: Mitochondrial membrane potential (JC-10), SMMC-7721; details: SMMC-7721, 2 μM, 24 h
Experimental: (§5) The probe 5,6-dichloro-1,1′,3,3′- tetraethyl-imidacarbocyanine iodide (JC-10) was used as a measure of mitochondrial membrane potential ([Hirose et al., 1974]; [Chaudhari et al., 2008]). The effects of each of the six isolated saponins on mitochondrial membrane potential were determined using a JC-10 assay kit (×200, 10 μL/tube, five tubes), which was purchased from Beijing Solarbio Science & Technology Co., Ltd. (Beijing, China). Cells were cultured in a confocal dish with this method. After 12–24 h of inoculation and culture at 37°C, the purified saponins were added at the indicated concentrations. The cells were incubated at 37°C in a humidified atmosphere with 5% (v/v) CO2 for 24 h. The culture medium was removed, and the confocal dishes were washed twice with 1 mL PBS, followed by 0.5 mL incubation buffer containing 2.5 μL JC-10 (×200) at 37°C for 20 min in the dark. After incubation, the supernatant was removed, and the cells were washed twice with 1 mL JC-10 buffer and PBS. […] The wavelengths for excitation were 490 nm (green fluorescence) and 525 nm (red fluorescence). The wavelengths for emission were in the range of 495–565 nm (monomers for JC-10) and 550–620 nm (polymer for JC-10).

HepG2 cells [6] = assay: Mitochondrial membrane potential (JC-10), HepG2; details: HepG2, 2 μM, 24 h
Experimental: as §5

A549 cells [7] = assay: Mitochondrial membrane potential (JC-10), A549; details: A549, 2 μM, 24 h
Experimental: as §5

In the case of `CC1CCC2(OC1)OC1CC3C4CC=C5CC(OC6OC(CO)C(OC7OC(C)C(OC8OC(C)C(O)C(O)C8O)C(O)C7O)C(O)C6OC6OC(C)C(O)C(O)C6O)CCC5(C)C4CCC3(C)C1C2C` [saponin 6, diosgenin-3-O-α-L-rhamnopyranosyl-(1→2)-[α-L-rhamnopyranosyl-(1→4)-α-L-rhamnopyranosyl-(1→4)]-β-D-glucopyranoside], the “increase of proportion of cells in the G2/M phase compared to DMSO control” value (HepG2 cells [1]) is reported as 25.8%, the IC50 (SMMC-7721) is reported as 450 ± 10 nM and the “cell cycle phase with increased proportion of cells compared to DMSO control” value (SMMC-7721 cells [2]) is reported as “cell cycle arrest at the G2/M phase”. For the same compound, the “increase of proportion of cells in the G2/M phase compared to DMSO control” value (SMMC-7721 cells [2]) was 27.10%, the IC50 (LO2) was 370 ± 10 nM and the “cell cycle phase with increased proportion of cells compared to DMSO control” value (A549 cells [3]) was “G2/M phase”. For the same compound, the IC50 (A549) was 240 ± 10 nM, the IC50 (SK-HEP-1) was 1300 ± 60 nM and the IC50 (HepG2) was 2590 ± 30 nM. For the same compound, the “apoptosis rate (induction of apoptosis, in words)” value (SMMC-7721 cells [4]) was “substantial induction of apoptosis” and the IC50 (BEAS-2B) was 730 ± 30 nM.

`N#CC(C#N)=NNc1cccc(Cl)c1` [CCCP, carbonyl cyanide 3-chlorophenylhydrazone] was tested, and the “JC-10 green fluorescence (drop in mitochondrial membrane potential)” value (shortened to “JC-10 green fluorescence”) (SMMC-7721 cells [5]) was “strong green fluorescence”, the “JC-10 green fluorescence” value (HepG2 cells [6]) was “strong green fluorescence” and the “JC-10 green fluorescence” value (A549 cells [7]) was “strong green fluorescence”.
